The sequences below were run against GFP (Aequorea victoria, UniProt P42212). Conditions: array of randomly generated peptides; GFP binding assay.
From the text: Peptide aptamers also can be selected using a peptide array containing randomly generated peptides (e.g., 10,000 randomly generated peptides) that are 10 to 35 amino acids (e.g., 15 to 25 or 20 amino acids) in length. The peptide array can be screened using a binding assay with the protein target (e.g., GFP or thioredoxin). For example, when a fluorescent protein such as GFP is the target, GFP-binding peptides can be directly identified through a fluorescent scanner after a GFP binding assay.
For CSGFRAMWLYRNWESQVEAT [SEQ ID NO:2], the “binding to GFP on peptide array (strong fluorescence spots)” value (shortened to “binding to GFP on peptide array”) was “bind specifically to the GFP”. In the case of CSGPYGTHFMYKSGGWRAIY [SEQ ID NO:4], the “binding to GFP on peptide array” value is reported as “bind specifically to the GFP”. CSGWNHVIYEGTRYNWFRDS [SEQ ID NO:3] was tested, and the “binding to GFP on peptide array” value was “bind specifically to the GFP”.
